Source: patent US10738028B2, “Spiro three-membered ring, spiro five-membered ring peptide deformylase inhibitor and use thereof in antibacteria and anti-tumor” (priority 2016, dated 2020)
Converted amounts (≈) assume the structure as drawn. Like-named read-outs stand apart in the source and are kept apart here.

How the values were obtained:
Type in all cases: cell-based
[1] = tested on: BEL-7402 liver cancer cell line; assay: CCK-8 proliferation inhibition; conditions: Homo sapiens, Bel-7402, 72 h, concentration of 30 μM
Source text: (§1) 2. The present invention adopts the CCK-8 method to determine the proliferation inhibition effect of the spiro three-membered ring, spiro five-membered ring peptide deformylase inhibitor as described in Examples 1-80 against colorectal cancer cells, lung cancer cells, gastric cancer cells, liver cancer cells, and the like. […] The compound having the best activity synthesized in Example 64 was further tested for its inhibitory activity against other tumor cells including T cell leukemia, acute myeloid leukemia, cervical cancer, breast cancer, prostate cancer and osteosarcoma, and the like (see Table 7).
(§2) (1) HCT-116 colorectal cancer cell line, A549 lung cancer cell line, MGC-803 gastric cancer cell line, BEL-7402 liver cancer cell line, Jurkat T cell leukemia cell line, HL60 acute myeloid leukemia cell line, Hela cervical cancer cell line, MCF-7 breast cancer cell line, PC3 prostate cancer cell line and SAOS-2 osteosarcoma cell line were made into single cell suspension, 180 μL of which was inoculated into 96-well culture plate, which was cultured overnight in CO2 incubator (37° C., 5% CO2, 95% air).
(§3) (2) Each of the spiro three-membered ring, spiro five membered ring peptide deformylase inhibitors was dissolved in DMSO, and was further formulated into drug solution with required different final concentration using corresponding cell culture medium. The drug solutions were added to the above cells respectively (20 μL/well), with the control group added with 1‰ DMSO, and cultured in a CO2 incubator for 72 hours.
(§4) (3) After incubation for 72 hours, the culture solution was decanted, and 100 μL of 1:10 diluted CCK-8 solution was added.
(§5) Wherein, in step (1), the concentration of the single cell suspension was 2000 cells/well.
(§6) Wherein, in step (2), HCT-116 cells were cultured in McCoy's 5A medium (containing 10% newborn bovine serum, 1% double antibody); A549 and PC3 cells were cultured in F12 medium (containing 10% newborn bovine serum, 1% double antibody); MGC-803, BEL-7402, SAOS-2, Jurkat and HL60 cells were cultured in 1640 medium (containing 10% newborn bovine serum, 1% double antibody); and MCF-7 and Hela cells were cultured in DMEM high glucose medium (containing 10% newborn bovine serum, 1% double antibody).

[2] = tested on: A549 lung cancer cell line; assay: CCK-8 proliferation inhibition; conditions: Homo sapiens, A549, 72 h, concentration of 30 μM
Source text: as §1, §2, §3, §4, §5, §6

[3] = tested on: MGC-803 gastric cancer cell line; assay: CCK-8 proliferation inhibition; conditions: Homo sapiens, MGC-803, 72 h, concentration of 30 μM
Source text: as §1, §2, §3, §4, §5, §6

[4] = tested on: Enterococcus faecalis (EFA); assay: MIC, two-fold agar dilution (CLSI), clinical isolates
In short: (§7)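 Following the American Clinical and Laboratory Standards Institute procedure, agar two-fold dilution served to determine minimum inhibitory concentrations.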

[5] = tested on: Moraxella catarrhalis (BCA); assay: as above
In short: as §7

[6] = tested on: methicillin-sensitive Staphylococcus aureus (MSSA); assay: as above
In short: as §7

[7] = tested on: Streptococcus pneoumoniae (SPN); assay: as above
In short: as §7

[8] = tested on: methicillin-sensitive Staphylococcus epidermidis (MSSE); assay: as above
In short: as §7

[9] = tested on: methicillin-resistant Staphylococcus epidermidis (MRSE); assay: as above
In short: as §7

[10] = tested on: Escherichia coli (including ESBLs, non-ESBLs); assay: as above
In short: as §7

[11] = tested on: methicillin-resistant Staphylococcus aureus (MRSA); assay: as above
In short: as §7

[12] = tested on: Enterococcus faecium (EFM); assay: as above
In short: as §7

[13] = tested on: HCT-116 colorectal cancer cell line; assay: CCK-8 proliferation inhibition; conditions: Homo sapiens, HCT-116, 72 h, concentration of 30 μM, 72 hours, CCK-8
In short: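 Cells were plated overnight at 2000 cells/well, then compound in culture medium was added at a range of final concentrations. After 72 hours in a CO2 incubator, medium was replaced with 1:10 CCK-8 solution for the read-out.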

O=CN(O)C[C@@H](CC1CCCC1)C(=O)N1CC2(CC2)C[C@H]1C(=O)NC1CC1 [Example 32, (S)-5-((R)-3-cyclopentyl-2-((N-hydroxyformamido)methyl)propionyl)-N-cyclopropyl-5-azaspiro[2.4]heptane-6-carboxamide]
inhibition at 30 µM [1]: 46%
inhibition at 30 µM [2]: 14%
inhibition at 30 µM [3]: 14%
MIC (anti-bacterial activity) ([4]; strain EFA 15-1): 8 µg/mL (≈ 21.2 µM)
MIC (anti-bacterial activity) ([4]; strain EFA 15-2): 8 µg/mL (≈ 21.2 µM)
MIC (anti-bacterial activity) ([4]; strain EFA 15-3): 8 µg/mL (≈ 21.2 µM)
MIC (anti-bacterial activity) ([4]; strain EFA 15-4): 8 µg/mL (≈ 21.2 µM)
MIC (anti-bacterial activity) ([4]; strain EFA 15-5): 8 µg/mL (≈ 21.2 µM)
MIC (anti-bacterial activity) ([4]; strain EFA 15-6): 8 µg/mL (≈ 21.2 µM)
MIC (anti-bacterial activity) ([4]; strain EFA 15-9): 8 µg/mL (≈ 21.2 µM)
Anti-bacterial activity (MIC), strain BCA 14-10 ([5]; clinical isolate BCA 14-10): 1 µg/mL
MIC (anti-bacterial activity) ([5]; strain BCA 14-1): 4 µg/mL (≈ 10.6 µM)
MIC (anti-bacterial activity) ([5]; strain BCA 14-4): 4 µg/mL (≈ 10.6 µM)
MIC (anti-bacterial activity) ([5]; strain BCA 14-5): 2 µg/mL (≈ 5.3 µM)
MIC (anti-bacterial activity) ([5]; strain BCA 14-6): 8 µg/mL (≈ 21.2 µM)
MIC (anti-bacterial activity) ([5]; strain BCA 14-7): 1 µg/mL (≈ 2.65 µM)
MIC (anti-bacterial activity) ([5]; strain BCA 14-8): 8 µg/mL (≈ 21.2 µM)
MIC (anti-bacterial activity) ([6]; strain MSSA 15-3): 2 µg/mL (≈ 5.3 µM)
MIC (anti-bacterial activity) ([6]; strain MSSA 15-4): 1 µg/mL (≈ 2.65 µM)
MIC (anti-bacterial activity) ([6]; strain MSSA 15-5): 1 µg/mL (≈ 2.65 µM)
MIC (anti-bacterial activity) ([6]; strain MSSA 15-6): 2 µg/mL (≈ 5.3 µM)
MIC (anti-bacterial activity) ([7]; strain SPN 16-2): 1 µg/mL (≈ 2.65 µM)
MIC (anti-bacterial activity) ([7]; strain SPN 16-4): 8 µg/mL (≈ 21.2 µM)
MIC (anti-bacterial activity) ([8]; strain MSSE 15-3): 2 µg/mL (≈ 5.3 µM)
MIC (anti-bacterial activity) ([8]; strain MSSE 15-4): 2 µg/mL (≈ 5.3 µM)
MIC (anti-bacterial activity) ([8]; strain MSSE 15-5): 2 µg/mL (≈ 5.3 µM)
MIC (anti-bacterial activity) ([8]; strain MSSE 15-6): 2 µg/mL (≈ 5.3 µM)
MIC (anti-bacterial activity) ([9]; strain MRSE 15-1): 1 µg/mL (≈ 2.65 µM)
MIC (anti-bacterial activity) ([9]; strain MRSE 15-2): 2 µg/mL (≈ 5.3 µM)
MIC (anti-bacterial activity) ([9]; strain MRSE 15-3): 8 µg/mL (≈ 21.2 µM)
MIC (anti-bacterial activity) ([9]; strain MRSE 15-7): 8 µg/mL (≈ 21.2 µM)
MIC (anti-bacterial activity) ([10]; strain ECO+ 15-1): 32 µg/mL (≈ 84.8 µM)
MIC (anti-bacterial activity) ([10]; strain ECO+ 15-2): > 32 µg/mL
MIC (anti-bacterial activity) ([10]; strain ECO+ 15-3): > 32 µg/mL
MIC (anti-bacterial activity) ([10]; strain ECO+ 15-4): 32 µg/mL (≈ 84.8 µM)
MIC (anti-bacterial activity) ([10]; strain ECO− 15-1): 32 µg/mL (≈ 84.8 µM)
MIC (anti-bacterial activity) ([10]; strain ECO− 15-2): > 32 µg/mL
MIC (anti-bacterial activity) ([10]; strain ECO− 15-3): > 32 µg/mL
MIC (anti-bacterial activity) ([10]; strain ECO− 15-4): > 32 µg/mL
MIC (anti-bacterial activity) ([11]; strain MRSA 15-1): 1 µg/mL (≈ 2.65 µM)
MIC (anti-bacterial activity) ([11]; strain MRSA 15-2): 1 µg/mL (≈ 2.65 µM)
MIC (anti-bacterial activity) ([11]; strain MRSA 15-3): 1 µg/mL (≈ 2.65 µM)
MIC (anti-bacterial activity) ([11]; strain MRSA 15-4): 1 µg/mL (≈ 2.65 µM)
MIC (anti-bacterial activity) ([12]; strain EFM 15-1): 4 µg/mL (≈ 10.6 µM)
MIC (anti-bacterial activity) ([12]; strain EFM 15-2): 4 µg/mL (≈ 10.6 µM)
MIC (anti-bacterial activity) ([12]; strain EFM 15-3): 1 µg/mL (≈ 2.65 µM)
MIC (anti-bacterial activity) ([12]; strain EFM 15-4): 4 µg/mL (≈ 10.6 µM)
MIC (anti-bacterial activity) ([12]; strain EFM 15-5): 4 µg/mL (≈ 10.6 µM)
MIC (anti-bacterial activity) ([12]; strain EFM 15-6): 4 µg/mL (≈ 10.6 µM)
inhibition at 30 µM ([13]; Table 5, read-out: Inhibition of proliferation, Colorectal cancer HCT116): ≥ 30%
inhibition at 30 µM ([13]; read-out: HCT116 inhibition rate/%): 30%
